Measured values published in paper PMC5655141, “Allosteric fine-tuning of the conformational equilibrium poises the chaperone BiP for post-translational regulation” (eLife, 2017).

Legend:
Assay in all cases: ITC
Type in all cases: binding
[1] = target: T1, BiP* FL (full-length T229G BiP, BiP(1-641)) (Cricetulus griseus, UniProt G3I8R9, T229G)
T1 construct: gene HSPA5; full-length two-domain BiP, residues 1-641 as printed, non-cleavable N-terminal 6xHis tag, pET28a, E. coli BL21(DE3); ATPase-deficient T229G; non-AMPylated
Source text: ITC on BiP* FL (full-length T229G BiP, BiP(1-641))

[2] = target: T2, BiP* NBD(1-417) (Cricetulus griseus, UniProt G3I8R9, T229G)
T2 construct: gene HSPA5; T229G

[3] = target: T3, BiP* NBD(1-413) (Cricetulus griseus, UniProt G3I8R9, T229G)
T3 construct: gene HSPA5; T229G

[4] = target: T4, AMPylated BiP* FL (Cricetulus griseus, UniProt G3I8R9, T229G/V461F)
T4 construct: gene HSPA5; T229G
Source text: ITC on AMPylated BiP* FL | nucleotide (ATP or ADP) binding to non-AMPylated and AMPylated V461F BiP* measured by ITC

[5] = target: T5, BiP* FL (full-length T229G BiP, BiP(1-641)) (Cricetulus griseus, UniProt G3I8R9, T229G/V461F)
T5 construct: gene HSPA5; full-length two-domain BiP, residues 1-641 as printed, non-cleavable N-terminal 6xHis tag, pET28a, E. coli BL21(DE3); ATPase-deficient T229G; non-AMPylated
Source text: ITC on BiP* FL (full-length T229G BiP, BiP(1-641)) | ATP and ADP binding obtained from ITC experiments for FL BiP*

T4 sequence (G3I8R9 1-641 T229G/V461F): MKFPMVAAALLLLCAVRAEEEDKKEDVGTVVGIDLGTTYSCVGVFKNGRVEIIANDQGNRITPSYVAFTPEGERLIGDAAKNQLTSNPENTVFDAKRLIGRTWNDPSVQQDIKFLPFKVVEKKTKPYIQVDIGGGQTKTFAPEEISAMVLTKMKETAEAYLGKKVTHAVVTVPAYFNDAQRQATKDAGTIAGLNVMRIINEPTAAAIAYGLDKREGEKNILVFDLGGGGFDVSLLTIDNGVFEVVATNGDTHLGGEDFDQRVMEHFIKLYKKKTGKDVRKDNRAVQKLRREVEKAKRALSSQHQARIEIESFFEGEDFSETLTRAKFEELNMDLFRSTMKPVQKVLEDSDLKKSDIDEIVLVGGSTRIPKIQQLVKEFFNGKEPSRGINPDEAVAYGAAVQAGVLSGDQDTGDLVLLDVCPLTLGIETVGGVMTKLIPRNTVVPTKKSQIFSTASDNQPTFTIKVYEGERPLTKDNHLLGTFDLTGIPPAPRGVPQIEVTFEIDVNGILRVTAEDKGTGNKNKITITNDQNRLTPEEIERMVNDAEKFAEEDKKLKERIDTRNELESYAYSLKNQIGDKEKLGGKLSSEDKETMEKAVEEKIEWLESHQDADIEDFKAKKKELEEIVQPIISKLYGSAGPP
T5 sequence (G3I8R9 1-641 T229G/V461F): as above
T2 sequence (G3I8R9 1-417 T229G): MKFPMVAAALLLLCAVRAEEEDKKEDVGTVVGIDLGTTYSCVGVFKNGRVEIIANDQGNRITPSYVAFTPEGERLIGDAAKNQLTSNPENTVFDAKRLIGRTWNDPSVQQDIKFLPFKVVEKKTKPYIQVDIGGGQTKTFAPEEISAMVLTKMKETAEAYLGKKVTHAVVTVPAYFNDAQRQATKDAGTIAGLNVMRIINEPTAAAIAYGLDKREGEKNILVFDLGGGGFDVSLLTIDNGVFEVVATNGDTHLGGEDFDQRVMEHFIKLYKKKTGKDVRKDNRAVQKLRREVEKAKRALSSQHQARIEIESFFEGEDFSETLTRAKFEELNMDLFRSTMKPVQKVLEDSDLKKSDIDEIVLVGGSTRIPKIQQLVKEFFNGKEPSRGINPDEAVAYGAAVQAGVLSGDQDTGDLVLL
T3 sequence (G3I8R9 1-413 T229G): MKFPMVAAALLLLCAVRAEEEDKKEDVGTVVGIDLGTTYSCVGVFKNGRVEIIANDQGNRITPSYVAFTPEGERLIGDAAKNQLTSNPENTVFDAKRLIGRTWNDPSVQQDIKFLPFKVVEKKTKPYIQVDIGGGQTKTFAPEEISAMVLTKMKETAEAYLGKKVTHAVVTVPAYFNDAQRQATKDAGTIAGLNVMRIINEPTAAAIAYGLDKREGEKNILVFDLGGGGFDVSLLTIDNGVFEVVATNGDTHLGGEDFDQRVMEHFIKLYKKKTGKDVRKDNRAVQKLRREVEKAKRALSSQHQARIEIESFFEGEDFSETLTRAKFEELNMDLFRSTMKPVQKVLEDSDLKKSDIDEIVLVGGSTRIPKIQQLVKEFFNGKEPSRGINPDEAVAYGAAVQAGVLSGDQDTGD
T1 sequence (G3I8R9 1-641 T229G): as the sequence (G3I8R9 1-641 T229G/V461F) above, with F461V counted along it

SMILES | Kd [1] [µM] | Kd [2] [µM] | Kd [3] [µM] | Kd [4] [µM] | Kd [5] [µM]
Nc1ncnc2c1ncn2[C@@H]1O[C@H](COP(=O)(O)OP(=O)(O)O)[C@@H](O)[C@H]1O [ADP] | 5.73 | 3.94 | 5.27 | 2.36 | 4.49
Nc1ncnc2c1ncn2[C@@H]1O[C@H](COP(=O)(O)OP(=O)(O)OP(=O)(O)O)[C@@H](O)[C@H]1O [ATP] | – | – | – | 0.07 | 0.21
